# Values joined by “and” are separate entries in the source; they are usually repeats but may differ in a detail not shown here. Equal entries are not always repeated. Where two headings read alike, the source gives them in different places. Marks after values point to notes of the source that are not given here.
# Experiments:
# [1] = target: T1, M. tuberculosis MshC (Cys:GlcN-Ins ligase) (Mycobacterium tuberculosis, UniProt P9WJM9); assay type: biochemical; conditions: 0.1-5 mM, FIG. 16
# [2] = target: T1, M. tuberculosis MshC (Cys:GlcN-Ins ligase); conditions: for activity as alternative substrate to Cys: 80 μM to 1.6 mM
# [3] = target: T1, M. tuberculosis MshC (Cys:GlcN-Ins ligase); assay type: biochemical
# [4] = target: T1, M. tuberculosis MshC (Cys:GlcN-Ins ligase); assay type: biochemical; conditions: 2, 10, 50 or 100 μM zinc chloride, FIG. 16
# [5] = tested on: M. smegmatis MSH deficient mutants (Tn1, Tn2, I64); assay type: cell-based
# N[C@@H](CS)C(=O)O = test: purified protein, by the assay type; conditions: 37.0 °C
# T1 sequence (P9WJM9 whole entry): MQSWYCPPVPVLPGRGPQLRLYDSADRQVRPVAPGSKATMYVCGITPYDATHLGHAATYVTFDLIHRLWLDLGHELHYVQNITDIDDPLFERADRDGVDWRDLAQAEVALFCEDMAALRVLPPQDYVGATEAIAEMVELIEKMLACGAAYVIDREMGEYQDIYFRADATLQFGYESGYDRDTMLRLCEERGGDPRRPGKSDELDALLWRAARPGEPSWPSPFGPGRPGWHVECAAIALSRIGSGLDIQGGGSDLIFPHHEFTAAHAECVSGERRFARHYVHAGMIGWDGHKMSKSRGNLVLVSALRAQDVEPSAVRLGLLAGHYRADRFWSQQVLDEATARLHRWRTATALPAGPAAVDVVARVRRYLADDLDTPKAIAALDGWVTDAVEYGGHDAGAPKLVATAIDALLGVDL
Compound,inhibition of ligase activity [3],relative spec. act. [2],activity as alternative substrate to Cys [2],other results
"c1cnc2c(c1)ccc1cccnc12 [1,10-phenanthroline]",–,–,–,effect of metal chelation on enzyme activity [1]: no significant loss of activity
Nc1ncnc2c1ncn2[C@@H]1O[C@H](COP(=O)(O)OP(=O)(O)OP(=O)(O)O)[C@@H](O)[C@H]1O [ATP],–,–,–,decline of reaction rate [2]: 2.2 fold
"CC(=O)N[C@@H](CS)C(=O)O [AcCys, N-acetylcysteine]",minor inhibition,≦0.24,Nor was significant activity detected,–
"N[C@@H](CS)C(=O)O [Cys, L-cysteine]",–,(100)^c,–,Specific activity [2]: ^cSpecific activity 108 nmol min^−1 mg^−1.; apparent Vmax (L-Cys varied) [2]: 1450 ± 200 nmol/min/mg
"N[C@@H](CS)C(=O)N[C@H]1[C@@H](OC2[C@H](O)[C@H](O)C(O)[C@H](O)[C@H]2O)O[C@H](CO)[C@@H](O)[C@@H]1O (stereo partly drawn) [Cys-GlcN-Ins, 1D-myo-inosityl 2-L-cysteinylamido-2-deoxy-α-D-glucopyranoside]",–,–,–,inhibition [3]: < 1.0%
N[C@H](CS)C(=O)O [D-Cys],Only very minor inhibition,≦0.7,poor substrate,% inhibition [3]: 15 ± 8%
"N[C@H]1C(O)O[C@H](CO)[C@@H](O)[C@@H]1O (stereo partly drawn) [D-GlcN, D-glucosamine]",–,1.2,–,activity relative to GlcN-Ins [2]: ~1%
"N[C@H]1[C@@H](OC2[C@H](O)[C@H](O)C(O)[C@H](O)[C@H]2O)O[C@H](CO)[C@@H](O)[C@@H]1O (stereo partly drawn) [GlcN-Ins, 1D-myo-inosityl 2-amino-2-deoxy-α-D-glucopyranoside]",–,–,–,apparent Vmax (GlcN-Ins varied) [2]: 1160 ± 120 nmol/min/mg; Km ([2]; read-out: apparent Km for GlcN-Ins): 280 ± 43 µM
C[C@H](N)C(=O)O [L-alanine],Only very minor inhibition,≦0.016,Nor was significant activity detected,–
N[C@@H](CCS)C(=O)O [L-homocysteine],Only very minor inhibition,≦0.2,Nor was significant activity detected,–
N[C@@H](CO)C(=O)O [L-serine],Only very minor inhibition,≦0.008,Nor was significant activity detected,–
CC[C@H](N)C(=O)O [L-α-aminobutyric acid],Only very minor inhibition,–,–,–
"CC(=O)N[C@@H](CS)C(=O)N[C@H]1[C@@H](OC2[C@H](O)[C@H](O)C(O)[C@H](O)[C@H]2O)O[C@H](CO)[C@@H](O)[C@@H]1O (stereo partly drawn) [MSH, 1D-myo-inosityl 2-(N-acetylcysteinyl)amido-2-deoxy-α-D-glucopyranoside]",–,–,–,"% inhibition [3]: 4 ± 3% and 7 ± 5%; inhibition of ligase activity ([3]; 1 and 5 mM, physiologic levels): minimal inhibition"
"[Cl-].[Cl-].[Zn+2] [Zn^2+, zinc chloride]",–,–,–,effect of supplementation on enzyme activity [4]: loss in activity
NCCS [cysteamine],best inhibitor,≦0.16,"Neither β-mercaptopropionic acid nor cysteamine, derived from Cys by removal of the amino and carboxyl groups, respectively, produced evidence of reaction",reduction in rate [3]: 3 fold
CC[C@@H](CO)NCCN[C@@H](CC)CO [ethambutol],–,–,–,difference in sensitivity between mutants [5]: no significant difference
NC(=O)c1cnccn1 [pyrazinamide],–,–,–,difference in sensitivity between mutants [5]: no significant difference
"O=C(O)CCS [β-mercaptopropionate, β-mercaptopropionic acid]",minor inhibition,≦0.004,"Neither β-mercaptopropionic acid nor cysteamine, derived from Cys by removal of the amino and carboxyl groups, respectively, produced evidence of reaction",–
M. tuberculosis MshC (Cys:GlcN-Ins ligase) (Mycobacterium tuberculosis H37Rv),–,–,–,Km (N[C@@H](CS)C(=O)O): 70 ± 15 µM and 85 ± 20 µM
